From patent publication US4713238A (GAF Corporation, priority 1986, dated 1987)
Values after ≈ are worked out from the molar mass of the structure shown.

Key:
physchem = conditions: water
Description: The pH was adjusted with a buffer solution to 6 and distilled water was added to bring the solution to 1% concentration. The resulting mixture was agitated on a horizontal shaker at room temperature for 24 hours.
The pH was then adjusted to 6.5 with a concentrated aqueous hydrochloric acid solution to convert the complexed salt to the complexed product of the process and agitation was continued for 2 hours.

[1] = cited from earlier work

In the case of `NS(=O)(=O)c1cc2c(cc1Cl)N=CNS2(=O)=O` [chlorothiazide, 6-chloro-7-sulfamyl-1,2,4-benzothiadiazine-1,1-dioxide], the solubility thermodynamic at 24 h (physchem; pH 6, water) is listed as 500 µg/mL (≈ 1690 µM), the solubility (physchem; water solubility of uncomplexed chlorothiazide) is listed as roughly 500 µg/mL (≈ 1690 µM) and the “solubility in alkaline aqueous solutions” value ([1]; alkaline aqueous solutions / alkali hydroxides) is listed as “soluble in alkaline aqueous solutions”. For the same compound, the water-solubility ([1]; pH 6) was 0.5 g. per liter.
